In PubChem BioAssay (NCI):
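Where inhibition never reached the appropriate level, the endpoint shown equals the highest concentration tested. Otherwise, values were interpolated linearly from a five-concentration, 48-hour dose response in 96-well plates. TGI marks complete inhibition of growth.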

Columns and labels:
Assay in all cases: NCI-60 cell line screen, 48 h
HOP-62 NSCLC = test system: HOP-62 NSCLC
IGROV1 ovarian = test system: IGROV1 ovarian
M14 melanoma = test system: M14 melanoma
CAKI-1 renal = test system: CAKI-1 renal
786-0 renal = test system: 786-0 renal
HL-60(TB) leukemia = test system: HL-60(TB) leukemia
NCI-H226 lung = test system: NCI-H226 lung
KM12 colon = test system: KM12 colon
SK-MEL-28 melanoma = test system: SK-MEL-28 melanoma
NCI-H23 lung = test system: NCI-H23 lung
A498 renal = test system: A498 renal
RXF 393 renal = test system: RXF 393 renal
SNB-75 CNS = test system: SNB-75 CNS
OVCAR-4 ovarian = test system: OVCAR-4 ovarian
A549 NSCLC = test system: A549 NSCLC
PC-3 prostate = test system: PC-3 prostate
MALME-3M melanoma = test system: MALME-3M melanoma
LOX IMVI melanoma = test system: LOX IMVI melanoma
ACHN renal = test system: ACHN renal
MCF7 breast = test system: MCF7 breast
T-47D breast = test system: T-47D breast
SF-539 CNS = test system: SF-539 CNS
HCC-2998 colon = test system: HCC-2998 colon
SF-295 CNS = test system: SF-295 CNS
MOLT-4 leukemia = test system: MOLT-4 leukemia
NCI-H460 lung = test system: NCI-H460 lung
RPMI-8226 leukemia = test system: RPMI-8226 leukemia
MDA-N = test system: MDA-N
HS 578T breast = test system: HS 578T breast
HCT-116 colon = test system: HCT-116 colon
UO-31 renal = test system: UO-31 renal
SF-268 CNS = test system: SF-268 CNS
SNB-19 CNS = test system: SNB-19 CNS
OVCAR-8 ovarian = test system: OVCAR-8 ovarian
HT29 colon = test system: HT29 colon
COLO 205 colon = test system: COLO 205 colon
UACC-62 melanoma = test system: UACC-62 melanoma
DU-145 prostate = test system: DU-145 prostate
SK-MEL-5 melanoma = test system: SK-MEL-5 melanoma
MDA-MB-435 = test system: MDA-MB-435
SW-620 colon = test system: SW-620 colon
SN12C renal = test system: SN12C renal
CCRF-CEM leukemia = test system: CCRF-CEM leukemia
HOP-92 NSCLC = test system: HOP-92 NSCLC
MDA-MB-231 breast = test system: MDA-MB-231 breast
EKVX NSCLC = test system: EKVX NSCLC
OVCAR-3 ovarian = test system: OVCAR-3 ovarian
K-562 leukemia = test system: K-562 leukemia
TK-10 renal = test system: TK-10 renal
NCI-H522 lung = test system: NCI-H522 lung
SR leukemia = test system: SR leukemia
UACC-257 melanoma = test system: UACC-257 melanoma
NCI/ADR-RES ovarian = test system: NCI/ADR-RES ovarian
SK-OV-3 ovarian = test system: SK-OV-3 ovarian
OVCAR-5 ovarian = test system: OVCAR-5 ovarian
HCT-15 colon = test system: HCT-15 colon

C/C(=C\CNc1ncnc2c1ncn2CCC(=O)OC(C)(C)C)CO
TGI (HOP-62 NSCLC): > 100 µM | TGI (IGROV1 ovarian): > 100 µM | TGI (M14 melanoma): > 100 µM | TGI (CAKI-1 renal): > 100 µM | TGI (786-0 renal): > 100 µM | TGI (HL-60(TB) leukemia): > 100 µM | TGI (NCI-H226 lung): > 100 µM | TGI (KM12 colon): > 100 µM | TGI (SK-MEL-28 melanoma): > 100 µM | TGI (NCI-H23 lung): > 100 µM | TGI (A498 renal): > 100 µM | TGI (RXF 393 renal): > 100 µM | TGI (SNB-75 CNS): > 100 µM | TGI (OVCAR-4 ovarian): > 100 µM | TGI (A549 NSCLC): > 100 µM | TGI (PC-3 prostate): > 100 µM | TGI (MALME-3M melanoma): > 100 µM | TGI (LOX IMVI melanoma): > 100 µM | TGI (ACHN renal): > 100 µM | TGI (MCF7 breast): > 100 µM | TGI (T-47D breast): > 100 µM | TGI (SF-539 CNS): > 100 µM | TGI (HCC-2998 colon): > 100 µM | TGI (SF-295 CNS): > 100 µM | TGI (MOLT-4 leukemia): > 100 µM | TGI (NCI-H460 lung): > 100 µM | TGI (RPMI-8226 leukemia): > 100 µM | TGI (MDA-N): > 100 µM | TGI (HS 578T breast): > 100 µM | TGI (HCT-116 colon): > 100 µM | TGI (UO-31 renal): > 100 µM | TGI (SF-268 CNS): > 100 µM | TGI (SNB-19 CNS): > 100 µM | TGI (OVCAR-8 ovarian): > 100 µM | TGI (HT29 colon): > 100 µM | TGI (COLO 205 colon): > 100 µM | TGI (UACC-62 melanoma): > 100 µM | TGI (DU-145 prostate): > 100 µM | TGI (SK-MEL-5 melanoma): > 100 µM | TGI (MDA-MB-435): > 100 µM | TGI (SW-620 colon): > 100 µM | TGI (SN12C renal): > 100 µM | TGI (CCRF-CEM leukemia): > 100 µM | TGI (HOP-92 NSCLC): > 100 µM | TGI (MDA-MB-231 breast): > 100 µM | TGI (EKVX NSCLC): > 100 µM | TGI (OVCAR-3 ovarian): > 100 µM | TGI (K-562 leukemia): > 100 µM | TGI (TK-10 renal): > 100 µM | TGI (NCI-H522 lung): > 100 µM | TGI (SR leukemia): > 100 µM | TGI (UACC-257 melanoma): > 100 µM | TGI (NCI/ADR-RES ovarian): > 100 µM | TGI (SK-OV-3 ovarian): > 100 µM | TGI (OVCAR-5 ovarian): > 100 µM

CCCCOC(=O)NC(Nc1ccc(S(=O)(=O)Nc2ncccn2)cc1)(C(F)(F)F)C(F)(F)F
TGI (HOP-62 NSCLC): > 100 µM | TGI (IGROV1 ovarian): > 100 µM | TGI (M14 melanoma): > 100 µM | TGI (CAKI-1 renal): > 100 µM | TGI (786-0 renal): > 100 µM | TGI (HL-60(TB) leukemia): > 100 µM | TGI (NCI-H226 lung): > 100 µM | TGI (KM12 colon): > 100 µM | TGI (SK-MEL-28 melanoma): > 100 µM | TGI (NCI-H23 lung): > 100 µM | TGI (A498 renal): > 100 µM | TGI (RXF 393 renal): > 100 µM | TGI (OVCAR-4 ovarian): > 100 µM | TGI (A549 NSCLC): > 100 µM | TGI (PC-3 prostate): > 100 µM | TGI (MALME-3M melanoma): > 100 µM | TGI (LOX IMVI melanoma): > 100 µM | TGI (ACHN renal): > 100 µM | TGI (T-47D breast): > 100 µM | TGI (SF-539 CNS): > 100 µM | TGI (HCC-2998 colon): 65.9 µM | TGI (SF-295 CNS): > 100 µM | TGI (MOLT-4 leukemia): > 100 µM | TGI (NCI-H460 lung): > 100 µM | TGI (RPMI-8226 leukemia): > 100 µM | TGI (MDA-N): > 100 µM | TGI (HCT-15 colon): > 100 µM | TGI (HS 578T breast): > 100 µM | TGI (HCT-116 colon): > 100 µM | TGI (UO-31 renal): 43.6 µM | TGI (SF-268 CNS): > 100 µM | TGI (SNB-19 CNS): > 100 µM | TGI (OVCAR-8 ovarian): > 100 µM | TGI (HT29 colon): > 100 µM | TGI (COLO 205 colon): > 100 µM | TGI (UACC-62 melanoma): > 100 µM | TGI (DU-145 prostate): > 100 µM | TGI (SK-MEL-5 melanoma): > 100 µM | TGI (MDA-MB-435): > 100 µM | TGI (SW-620 colon): > 100 µM | TGI (SN12C renal): > 100 µM | TGI (CCRF-CEM leukemia): > 100 µM | TGI (HOP-92 NSCLC): > 100 µM | TGI (MDA-MB-231 breast): > 100 µM | TGI (EKVX NSCLC): > 100 µM | TGI (OVCAR-3 ovarian): > 100 µM | TGI (K-562 leukemia): > 100 µM | TGI (TK-10 renal): > 100 µM | TGI (NCI-H522 lung): > 100 µM | TGI (SR leukemia): > 100 µM | TGI (NCI/ADR-RES ovarian): > 100 µM | TGI (SK-OV-3 ovarian): > 100 µM | TGI (OVCAR-5 ovarian): > 100 µM
